Columns and labels:
[1] = target: T1, MKK4-MEKK2 mix (Homo sapiens, UniProt P45985); experiment: Radiometric protein kinase assay, MEKK2 dependent MKK4 activation (cascade); format: biochemical; settings: substrate JNK1 KRKR, ATP 0.2 μM, read-out: Cascade, potency derived from IC50-values
T1 construct: MEKK2, recombinant, active: ProQinase product #0583-0000-1
T1 sequence (P45985 2-399): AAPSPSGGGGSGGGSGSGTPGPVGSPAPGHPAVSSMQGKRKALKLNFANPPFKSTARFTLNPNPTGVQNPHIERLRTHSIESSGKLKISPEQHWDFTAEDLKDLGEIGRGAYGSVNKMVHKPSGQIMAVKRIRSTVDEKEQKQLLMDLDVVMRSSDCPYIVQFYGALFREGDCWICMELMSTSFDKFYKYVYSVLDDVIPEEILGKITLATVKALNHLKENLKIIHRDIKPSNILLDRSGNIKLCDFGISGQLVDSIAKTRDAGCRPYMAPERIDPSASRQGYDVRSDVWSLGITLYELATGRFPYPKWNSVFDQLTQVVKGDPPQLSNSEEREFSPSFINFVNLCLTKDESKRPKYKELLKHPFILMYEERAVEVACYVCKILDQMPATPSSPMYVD
Procedure: The activation step is done in 50 mM HEPES pH 7.5, 50 mM NaCl, 3.8 mM MgCl2, 2.5 mM DTT, 10% (v/v) glycerol. Final DMSO concentration is 1%. The activation mixture is pipetted in the following order • 2.5 μl compound in 4% DMSO • 2.5 μl ATP/MgCl2 mix • 5 μl premixed kinase solution MKK4:MEKK2 10:1 (w/w)
Protein concentrations in the activation mix are 1 μM MKK4 and 50 nM MEKK2.
(§1) A radiometric protein kinase assay was used for measuring the kinase activity of the respective protein kinases. All kinase assays were performed in 96-well polypropylene plates. After the reactions were stopped, the assay mixtures were transferred to 96-well MSFC filter-plates (Millipore). The reaction mix was passed through the filter membrane by aspiration, the membrane was washed 3 times with 150 mM H3PO4, once with ethanol, dried and liquid scintillation cocktail was added. Radioactivity was determined by counting of the samples in a Microbeta multiwell scintillation counter (Wallac).

[2] = target: T2, MEKK2 (Homo sapiens, UniProt Q9Y2U5); experiment: Radiometric protein kinase assay, MEKK2; format: biochemical; settings: substrate Casein, ATP 0.2 μM; read-out: MEKK2, potency derived from IC50-values
T2 construct: purchased ProQinase #0583-0000-1
T2 sequence (Q9Y2U5 1-619): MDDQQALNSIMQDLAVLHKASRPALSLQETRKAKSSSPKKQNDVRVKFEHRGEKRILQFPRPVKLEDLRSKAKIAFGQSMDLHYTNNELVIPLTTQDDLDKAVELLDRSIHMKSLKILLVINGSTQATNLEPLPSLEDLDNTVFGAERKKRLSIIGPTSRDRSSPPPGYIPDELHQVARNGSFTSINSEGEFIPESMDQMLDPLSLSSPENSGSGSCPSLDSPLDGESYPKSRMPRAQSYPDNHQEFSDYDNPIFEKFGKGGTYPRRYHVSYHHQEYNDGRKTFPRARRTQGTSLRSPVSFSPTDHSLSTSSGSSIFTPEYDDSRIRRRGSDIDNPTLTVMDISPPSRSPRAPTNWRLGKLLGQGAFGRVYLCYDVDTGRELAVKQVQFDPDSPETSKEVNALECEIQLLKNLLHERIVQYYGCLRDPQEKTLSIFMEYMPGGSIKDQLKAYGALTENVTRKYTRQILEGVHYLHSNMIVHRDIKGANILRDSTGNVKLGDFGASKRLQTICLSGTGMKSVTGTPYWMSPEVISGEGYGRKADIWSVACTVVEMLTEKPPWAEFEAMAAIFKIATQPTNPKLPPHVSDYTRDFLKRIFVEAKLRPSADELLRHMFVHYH
Procedure: as §1

[3] = target: T3, JNK1 (Homo sapiens, UniProt P45983); experiment: KINOMEscan competition binding assay, selectivity against off-target JNK1; settings: concentration of 100 nM
T3 construct: M1/Q384; host or cells: HEK-293
T3 sequence (P45983 1-384 isoform P45983-2): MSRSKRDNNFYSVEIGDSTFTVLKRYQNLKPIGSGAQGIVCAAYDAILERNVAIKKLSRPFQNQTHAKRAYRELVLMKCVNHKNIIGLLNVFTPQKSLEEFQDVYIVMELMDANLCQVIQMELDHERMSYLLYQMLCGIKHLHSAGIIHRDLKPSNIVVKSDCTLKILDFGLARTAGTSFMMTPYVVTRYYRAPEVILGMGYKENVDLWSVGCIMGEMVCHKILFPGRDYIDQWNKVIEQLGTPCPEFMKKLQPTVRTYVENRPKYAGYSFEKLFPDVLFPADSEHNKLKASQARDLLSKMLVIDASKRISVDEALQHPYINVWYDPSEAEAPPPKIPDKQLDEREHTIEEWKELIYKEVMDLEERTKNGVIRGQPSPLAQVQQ
Method in brief: (§2)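 DNA-tagged kinases expressed in HEK-293 cells compete between test compound and immobilized ligand on blocked beads. Bound kinase is eluted and quantified by qPCR of the DNA tag. Compounds were tested at the indicated final concentrations, prepared from 10 mM stocks.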

[4] = target: T4, MKK4 active (Homo sapiens, UniProt P45985); experiment: Radiometric protein kinase assay, MKK4 active; format: biochemical; settings: substrate JNK1 KRKR, ATP 0.2 μM, read-out: MKK4, potency derived from IC50-values
T4 construct: purchased ProQinase #0948-0000-1
T4 sequence (P45985 1-399): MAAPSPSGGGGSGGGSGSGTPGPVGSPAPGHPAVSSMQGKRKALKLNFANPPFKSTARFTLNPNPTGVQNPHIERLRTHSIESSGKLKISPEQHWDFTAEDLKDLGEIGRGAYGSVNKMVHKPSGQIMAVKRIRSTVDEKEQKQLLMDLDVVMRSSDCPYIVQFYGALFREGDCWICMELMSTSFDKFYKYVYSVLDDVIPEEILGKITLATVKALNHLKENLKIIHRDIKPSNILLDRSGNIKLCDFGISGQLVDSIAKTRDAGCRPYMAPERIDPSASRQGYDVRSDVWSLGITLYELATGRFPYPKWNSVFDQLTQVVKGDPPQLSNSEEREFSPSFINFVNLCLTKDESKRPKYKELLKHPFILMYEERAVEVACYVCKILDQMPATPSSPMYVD
Procedure: as §1

[5] = target: T5, MKK4 (Homo sapiens, UniProt P45985); experiment: KINOMEscan competition binding assay, MKK4 potency; settings: concentration of 100 nM
T5 construct: S84/D399; host or cells: HEK-293
T5 sequence (P45985 84-399): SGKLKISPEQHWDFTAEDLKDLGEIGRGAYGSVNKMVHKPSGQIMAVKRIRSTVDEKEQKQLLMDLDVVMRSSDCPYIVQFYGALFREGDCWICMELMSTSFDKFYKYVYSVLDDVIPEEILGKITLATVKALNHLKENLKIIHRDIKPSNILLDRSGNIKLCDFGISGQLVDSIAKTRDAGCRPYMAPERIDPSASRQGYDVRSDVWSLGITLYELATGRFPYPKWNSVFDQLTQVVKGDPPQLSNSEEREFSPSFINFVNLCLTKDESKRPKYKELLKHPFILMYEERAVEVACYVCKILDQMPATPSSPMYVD
Method in brief: as §2

[6] = target: T6, MKK7 (Homo sapiens, UniProt O14733); experiment: KINOMEscan competition binding assay, selectivity against off-target MKK7; settings: concentration of 100 nM
T6 construct: M1/R419; host or cells: HEK-293
T6 sequence (O14733 1-419): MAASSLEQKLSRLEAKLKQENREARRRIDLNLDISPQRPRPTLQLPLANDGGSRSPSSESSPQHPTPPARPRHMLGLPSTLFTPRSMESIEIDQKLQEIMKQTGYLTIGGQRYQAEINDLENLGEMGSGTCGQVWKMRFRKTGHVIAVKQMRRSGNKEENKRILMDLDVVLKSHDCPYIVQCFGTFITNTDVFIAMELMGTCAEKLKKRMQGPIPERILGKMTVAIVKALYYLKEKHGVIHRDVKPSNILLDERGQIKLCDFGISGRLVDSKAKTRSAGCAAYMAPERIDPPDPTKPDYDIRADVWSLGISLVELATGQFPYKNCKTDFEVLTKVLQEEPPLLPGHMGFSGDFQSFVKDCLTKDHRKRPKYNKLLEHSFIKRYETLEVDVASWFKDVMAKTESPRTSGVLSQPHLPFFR
Method in brief: as §2

[7] = target: BRaf (Homo sapiens, UniProt P15056); experiment: KINOMEscan competition binding assay, selectivity against off-target BRaf; settings: concentration of 100 nM
Sequence of BRaf (P15056 whole entry): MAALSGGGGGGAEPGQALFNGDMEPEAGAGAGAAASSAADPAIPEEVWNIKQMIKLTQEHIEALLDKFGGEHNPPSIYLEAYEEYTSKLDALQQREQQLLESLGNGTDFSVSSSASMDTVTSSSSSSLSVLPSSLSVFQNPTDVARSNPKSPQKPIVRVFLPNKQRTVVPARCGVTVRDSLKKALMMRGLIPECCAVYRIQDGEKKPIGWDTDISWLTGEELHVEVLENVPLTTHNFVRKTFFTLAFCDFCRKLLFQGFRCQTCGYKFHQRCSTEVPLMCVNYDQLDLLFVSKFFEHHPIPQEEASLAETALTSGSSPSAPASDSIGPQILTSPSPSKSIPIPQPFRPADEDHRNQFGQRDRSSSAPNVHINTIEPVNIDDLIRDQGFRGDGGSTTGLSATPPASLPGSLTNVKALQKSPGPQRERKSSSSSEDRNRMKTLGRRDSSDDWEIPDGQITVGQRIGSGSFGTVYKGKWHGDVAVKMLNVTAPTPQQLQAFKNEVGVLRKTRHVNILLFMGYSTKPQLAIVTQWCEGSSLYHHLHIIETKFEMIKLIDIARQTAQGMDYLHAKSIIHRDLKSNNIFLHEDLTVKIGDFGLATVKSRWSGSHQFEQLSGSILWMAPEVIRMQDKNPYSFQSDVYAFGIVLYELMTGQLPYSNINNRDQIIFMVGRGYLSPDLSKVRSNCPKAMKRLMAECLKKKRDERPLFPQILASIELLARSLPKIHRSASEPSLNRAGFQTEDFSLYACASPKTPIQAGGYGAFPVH
Method in brief: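 Competition binding: test compound competes with an immobilized ligand for DNA-tagged BRaf, and kinase captured on the ligand is quantified by qPCR of the DNA tag. Compounds from 10 mM stocks were tested at the indicated final concentrations.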

| Compound | IC50 [1] [µM] | IC50 [2] [µM] | Selectivity vs. JNK1, ratio PoC(JNK1)/PoC(MKK4) [3] | IC50 [4] [nM] | MKK4, residual percent of control binding (PoC) [5] | Selectivity vs. MKK7, ratio PoC(MKK7)/PoC(MKK4) [6] | Selectivity vs. BRaf, ratio PoC(BRaf)/PoC(MKK4) [7] |
| --- | --- | --- | --- | --- | --- | --- | --- |
| CCCS(=O)(=O)Nc1ccc(F)c(C(=O)c2n[nH]c3ncc(-c4ccccc4)cc23)c1F [Example 2, N-(2,4-difluoro-3-(5-phenyl-1H-pyrazolo[3,4-b]pyridine-3-carbonyl)phenyl)propane-1-sulfonamide] | 1 to 10 | > 10 | ++ (30 > PoC(JNK1)/PoC(MKK4) ≥ 10) | < 500 | ++ (1 ≤ PoC < 10) | +++ (PoC(MKK7)/PoC(MKK4) ≥ 30) | ++ (30 > PoC(BRaf)/PoC(MKK4) ≥ 10) |
| CCCS(=O)(=O)Nc1ccc(F)c(C(=O)c2n[nH]c3ncc(-c4ccccc4Cl)cc23)c1F [Example 9, N-(3-(5-(2-chlorophenyl)-1H-pyrazolo[3,4-b]pyridine-3-carbonyl)-2,4-difluorophenyl)-propane-1-sulfonamide] | 1 to 10 | 1 to 10 | ++ (30 > PoC(JNK1)/PoC(MKK4) ≥ 10) | 500 to 1000 | ++ (1 ≤ PoC < 10) | ++ (30 > PoC(MKK7)/PoC(MKK4) ≥ 10) | + (10 > PoC(BRaf)/PoC(MKK4) ≥ 3) |
| CCCS(=O)(=O)Nc1ccc(F)c(C(=O)c2n[nH]c3ncc(-c4ccccc4OC)cc23)c1F [Example 14, N-(2,4-difluoro-3-(5-(2-methoxyphenyl)-1H-pyrazo-lo[3,4-b]pyridine-3-carbonyl)-phenyl)propane-1-sulfon-amide] | 1 to 10 | > 10 | ++ (30 > PoC(JNK1)/PoC(MKK4) ≥ 10) | 500 to 1000 | ++ (1 ≤ PoC < 10) | +++ (PoC(MKK7)/PoC(MKK4) ≥ 30) | +++ (PoC(BRaf)/PoC(MKK4) ≥ 30) |
| CCCS(=O)(=O)Nc1ccc(F)c(C(=O)c2n[nH]c3ncc(-c4ccc(S(N)(=O)=O)cc4F)cc23)c1F [Example 51m, 4-(3-(2,6-difluoro-3-(propylsulfonamido)benzoyl)-1H-pyrazolo[3,4-b]pyridin-5-yl)-3-fluorobenzenesulfonamide] | 1 to 10 | 1 to 10 | – | < 500 | – | – | – |

More lines, now with the values ahead:

| IC50 [1] [µM] | IC50 [2] [µM] | Selectivity vs. JNK1, ratio PoC(JNK1)/PoC(MKK4) [3] | IC50 [4] [nM] | MKK4, residual percent of control binding (PoC) [5] | Selectivity vs. MKK7, ratio PoC(MKK7)/PoC(MKK4) [6] | Selectivity vs. BRaf, ratio PoC(BRaf)/PoC(MKK4) [7] | Compound |
| --- | --- | --- | --- | --- | --- | --- | --- |
| > 10 | > 10 | +++ (PoC(JNK1)/PoC(MKK4) ≥ 30) | 1000 to 10000 | ++ (1 ≤ PoC < 10) | +++ (PoC(MKK7)/PoC(MKK4) ≥ 30) | O (PoC(BRaf)/PoC(MKK4) < 3) | CCCS(=O)(=O)Nc1ccc(F)c(C(=O)c2n[nH]c3ncc(-c4ccc(N(C)C)cc4)cc23)c1F [Example 8, N-(3-(5-(4-(dimethylamino)-phenyl)-1H-pyrazolo[3,4-b]pyridine-3-carbonyl)-2,4-difluorophenyl)-propane-1-sulfonamide] |
| 1 to 10 | 1 to 10 | ++ (30 > PoC(JNK1)/PoC(MKK4) ≥ 10) | < 500 | ++ (1 ≤ PoC < 10) | ++ (30 > PoC(MKK7)/PoC(MKK4) ≥ 10) | + (10 > PoC(BRaf)/PoC(MKK4) ≥ 3) | CCCS(=O)(=O)Nc1ccc(F)c(C(=O)c2n[nH]c3ncc(-c4ccccc4C)cc23)c1F [Example 13, N-(2,4-difluoro-3-(5-o-tolyl-1H-pyrazolo[3,4-b]pyridine-3-carbonyl)-phenyl)propane-1-sulfon-amide] |
| 1 to 10 | 1 to 10 | +++ (PoC(JNK1)/PoC(MKK4) ≥ 30) | < 500 | +++ (PoC < 1) | +++ (PoC(MKK7)/PoC(MKK4) ≥ 30) | + (10 > PoC(BRaf)/PoC(MKK4) ≥ 3) | CCCS(=O)(=O)Nc1ccc(F)c(C(=O)c2n[nH]c3ncc(-c4ccc(S(N)(=O)=O)cc4)cc23)c1F [Example 15, 4-(3-(2,6-difluoro-3-(propyl-sulfonamido)benzoyl)-1H-pyrazolo[3,4-b]pyridin-5-yl)benzene-sulfonamide] |
| 1 to 10 | > 10 | ++ (30 > PoC(JNK1)/PoC(MKK4) ≥ 10) | 1000 to 10000 | ++ (1 ≤ PoC < 10) | ++ (30 > PoC(MKK7)/PoC(MKK4) ≥ 10) | + (10 > PoC(BRaf)/PoC(MKK4) ≥ 3) | CCCS(=O)(=O)Nc1ccc(F)c(C(=O)c2n[nH]c3ncc(-c4cccc(OC)c4)cc23)c1F [Example 17, N-(2,4-difluoro-3-(5-(3-methoxyphenyl)-1H-pyrazo-lo[3,4-b]pyridine-3-carbonyl)-phenyl)propane-1-sulfon-amide] |
| < 0.5 | < 0.5 | – | < 500 | – | – | – | CCCS(=O)(=O)Nc1c(F)ccc(C(=O)c2n[nH]c3ncc(-c4ccc(S(N)(=O)=O)cc4)cc23)c1F [Example 67, 4-(3-(2,4-difluoro-3-(propylsulfon-amido)benzoyl)-1H-pyrazolo[3,4-b]pyridin-5-yl)benzenesulfonamide] |
